Laboratory results published in patent US9029381B2, “Cyclopropyl amide derivatives” (Astrazeneca AB, priority 2007, dated 2015).

What follows are molecules tested against human histamine H3 receptors (Homo sapiens (Human), UniProt Q9Y5N1) (assay: Histamine H3 SPA with the agonist radioligand [3H]-N-α-methylhistamine (hH3 binding)). Details: inhibition of [3H]-N-α-methylhistamine (1.4 nM) binding to CHO-K1 membranes expressing full-length human H3 (isoform 445).
Protocol: Histamine H3 SPA with the Agonist Radioligand [^3H]-N-α-Methylhistamine
The H3 binding assay was/can be used to evaluate the ability of at least one compound in accordance with formula I, Ia, Ib, and/or Ic to inhibit [^3H]-N-α-methylhistamine binding to CHO-K1 membranes expressing human histamine H3 receptors (full-length H3, the most prevalent brain isoform 445). In 200 μl 96-well SPA format, human H3 membranes (12.5 μg protein/well) and 1.4 nM [^3H]-N-α-methylhistamine were/can be incubated with at least one compound in accordance with formula I, Ia, Ib, and/or Ic for 1.5 hrs to determine percent effect with respect to total (1% DMSO) and non-specific binding (10 μM imetit). […] Single poke (SP) testing can be done in triplicate.
Membranes, prepared from CHO-K1 cells stably expressing the human histamine H3 receptor, can be obtained from ACS.
Tested formula I, Ia, Ib, and/or Ic compounds were/can be provided as solubilized samples in neat DMSO. Serial dilutions were/can be performed in DMSO.
Plates were/can be 96-well Unifilter GF/B (Perkin Elmer, 6005177). Plates were/can be read on a Perkin Elmer TopCount. CPM data was/can be used to analyze unless DPM data generated by a quench curve was/is required.
• 1. 1 mg/ml BSA was/can be added to assay buffer (AB) on day of assay. • 2. Amounts required for bead/membrane pool in AB were/can be calculated: “P”−need 17.1 ml/assay plate+10 ml PlateMate excess. Buffer volume was/can be split between beads and membranes to allow for polytroning of membranes prior to addition to beads. • a. […] A minimum of 15 minutes was/can be waited prior to adding membranes (See b. below). • b. Membranes (hH3 membranes from CHO cells containing recombinant human H3 receptors, 11.7 mg/ml): membranes were/can be removed from −80° C. and thawed in RT waterbath. (0.0702 mg/ml×P) mg of membranes were/can be resuspended in the remaining volume not used with beads above for 12.5 μg/well final and homogenized briefly at polytron speed 5.0. The homogenized membrane mixture was/can be combined with the beads and a minimum of 30 minutes was/can be waited prior to dispensing to plate. • 3. Formula I, Ia, Ib, and/or Ic compounds: For Single Poke, 2 μl mM of a compound in accordance with formula I, Ia, Ib, and/or Ic was/can be dispensed to Optiplates (triplicate plates) for final a concentration of 10 μM. […] Imetit (see below) was/can be used as a control. • 4. […] [^3H]-N-α-methylhistamine ([^3H]-NAMH): A solution in AB at 14 nM, 10× final concentration of 1.4 nM was/can be prepared. 5 μl samples were/can be calculated in quadruplicate on the 13 counter. If concentration was/is 12-14.5 nM, no adjustment was/is may be required. (For IC50s, use final concentration on calculation tab of ABase template.) Assay • 1. […] 2 μl of the formula I, Ia, Ib, and/or Ic compound dilution was/can be mixed and then transferred into assay plates. DMSO was/can be removed and 2 μl of 100 μM Imetit was/can be added to the wells. • 3. 178 μl bead/membrane mixture was/can be dispensed into the assay plate. • 4. 20 μl [^3H]-NAMH was/can be added with Rapid Plate. The assay plate was/can be sealed and incubated for 1.5 hr on RT shaker at speed ˜6.5. • 5. The assay plate was/can be subsequently centrifuged at 1000 rpm for 10 minutes. • 6. The count was/can be performed on TopCount using one of the 3H SPA H3 Quench programs.
The DPM data was/can be analyzed when tSIS was/is less than that associated with 70% of full scale on the quench curve (tSIS<25%). Otherwise, CPM data was/is used.
(§1) The IC50 and nH can be determined by fitting the data to model 205 in XLfit: y=A+((B−A)/(1+((C/x)^D)). Guanosine 5′-O-(3-[^35S]thio)triphosphate [GTPγS] Binding Assay

human histamine H3 receptors, sequence (Q9Y5N1 whole entry, canonical isoform): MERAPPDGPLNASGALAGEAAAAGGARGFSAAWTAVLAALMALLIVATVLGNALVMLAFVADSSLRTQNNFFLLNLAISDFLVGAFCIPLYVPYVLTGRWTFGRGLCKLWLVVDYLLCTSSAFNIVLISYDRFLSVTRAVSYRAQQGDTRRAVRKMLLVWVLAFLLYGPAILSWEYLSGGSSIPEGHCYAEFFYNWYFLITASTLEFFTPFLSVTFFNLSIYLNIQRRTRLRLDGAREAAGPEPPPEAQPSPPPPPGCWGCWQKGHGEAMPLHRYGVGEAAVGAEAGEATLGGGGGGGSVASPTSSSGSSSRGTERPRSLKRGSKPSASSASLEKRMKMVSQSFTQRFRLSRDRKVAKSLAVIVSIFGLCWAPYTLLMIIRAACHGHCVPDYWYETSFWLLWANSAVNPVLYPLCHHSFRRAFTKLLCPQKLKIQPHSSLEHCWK

Question: `O=C([C@H]1C[C@@H]1c1ccccc1)N1CCN(C2CCCCC2)CC1` (relative stereo) [Example 2, trans-(4-Cyclohexylpiperazin-1-yl)-(2-phenyl-cyclopropyl)methanone] was tested. Which IC50 did it give?
Answer: 105 nM

Question: Which IC50 does the source give for `O=C([C@H]1C[C@@H]1c1ccccc1)N1CCN(C2CCCCCC2)CC1` (relative stereo) [Example 3, trans-(4-Cycloheptylpiperazin-1-yl)-(2-phenylcyclopropyl)methanone] here?
Answer: 4160 nM

Question: For `O=C([C@H]1C[C@@H]1c1ccccc1)N1CCN(C2CCC2)CC1` (relative stereo) [Example 4, trans-(4-Cyclobutylpiperazin-1-yl)-(2-phenylcyclopropyl)methanone], which IC50 is on record?
Answer: 6.4 nM

Question: For `O=C([C@H]1C[C@@H]1c1ccccc1)N1CCN(C2CC2)CC1` (relative stereo) [Example 5, trans-(4-Cyclopropylpiperazin-1-yl)-(2-phenylcyclopropyl)methanone], which IC50 is on record?
Answer: 44.7 nM

Question: `O=C([C@H]1C[C@@H]1c1ccccc1)N1CCN(C2CCCC2)CC1` (relative stereo) [Example 6, trans-(4-Cyclopentylpiperazin-1-yl)-(2-phenylcyclopropyl)methanone] was tested. Which IC50 did it give?
Answer: 14 nM

Question: For `O=C([C@H]1C[C@@H]1c1ccccc1)N1CCCN(C2CCC2)CC1` (relative stereo) [Example 8, trans-(4-Cyclobutyl-1,4-diazepan-1-yl)-(2-phenylcyclopropyl)methanone], which IC50 is on record?
Answer: 7.56 nM

Question: With `CC(C)(C)N1CCN(C(=O)[C@H]2C[C@@H]2c2ccccc2)CC1` (relative stereo) [Example 9, trans-(4-tert-Butylpiperazin-1-yl)-(2-phenylcyclopropyl)methanone] as the molecule, how does the IC50 read?
Answer: 45.3 nM

Question: With `O=C([C@H]1C[C@@H]1c1ccc(Br)cc1)N1CCN(C2CCC2)CC1` (relative stereo) [Example 13, trans-[2-(4-Bromophenyl)cyclopropyl]-(4-cyclobutylpiperazin-1-yl)methanone] as the molecule, how does the IC50 read?
Answer: 13.3 nM

Question: How did the IC50 turn out when `CN1CCN(c2ccc([C@H]3C[C@@H]3C(=O)N3CCN(C4CCC4)CC3)cc2)C1=O` (relative stereo) [Example 16, trans-1-{4-[2-(4-Cyclobutylpiperazine-1-carbonyl)cyclopropyl]phenyl}-3-methylimidazolidin-2-one] was run?
Answer: 441 nM

Question: With `CS(=O)(=O)Nc1ccc([C@H]2C[C@@H]2C(=O)N2CCN(C3CCC3)CC2)cc1` (relative stereo) [Example 18, trans-N-{4-[2-(4-Cyclobutylpiperazine-1-carbonyl)cyclopropyl]phenyl}methane-sulfonamide] as the molecule, how does the IC50 read?
Answer: 62.5 nM

Question: `O=C([C@H]1C[C@@H]1c1ccc(N2CCCC2)cc1)N1CCN(C2CCC2)CC1` (relative stereo) [Example 19, trans-(4-cyclobutylpiperazin-1-yl) {-2-[4-(pyrrolidin-1-yl)phenyl]cyclopropyl}methanone] was tested. Which IC50 did it give?
Answer: 351 nM

Question: With `O=C([C@H]1C[C@@H]1c1ccc(C(F)(F)F)nc1)N1CCN(C2CCC2)CC1` (relative stereo) [Example 26, trans-(4-Cyclobutylpiperazin-1-yl)(2-(6-(trifluoromethyl)pyridin-3-yl)cyclopropyl)methanone] as the molecule, how does the IC50 read?
Answer: 88.3 nM

Question: For `O=C([C@@H]1C[C@H]1c1ccc(F)cc1)N1CCN(C2CCC2)CC1` (relative stereo) [Example 27, trans-(4-Cyclobutylpiperazin-1-yl)-[2-(4-fluorophenyl)cyclopropyl]methanone], which IC50 is on record?
Answer: 7.3 nM

Question: For `O=C([C@@H]1C[C@H]1c1cccc(Br)c1)N1CCN(C2CCC2)CC1` (relative stereo) [Example 28, trans-[2-(3-Bromophenyl)cyclopropyl]-(4-cyclobutylpiperazin-1-yl)methanone], which IC50 is on record?
Answer: 1.37 nM

Question: Which IC50 does the source give for `N#Cc1cccc([C@@H]2C[C@H]2C(=O)N2CCN(C3CCC3)CC2)c1` (relative stereo) [Example 29, trans-3-[2-(4-cyclobutylpiperazine-1-carbonyl)cyclopropyl]benzonitrile] here?
Answer: 0.834 nM

These molecules were tested against human Histamine H3 receptor (hH3R) (Homo sapiens (Human), UniProt Q9Y5N1) (assay: Guanosine 5'-O-(3-[35S]thio)triphosphate [GTPγS] binding assay). Details: antagonist mode vs (R)-α-methyl histamine 30 nM; membranes from CHO cells expressing hH3R.
human Histamine H3 receptor (hH3R), sequence (Q9Y5N1 whole entry): as the sequence (Q9Y5N1 whole entry, canonical isoform) above
Type: biochemical
Protocol: as §1
A GTPγS binding assay can be used to investigate antagonist properties of compounds in CHO cells (Chinese Hamster Ovary) transfected with human Histamine H3 receptor (hH3R). Membranes from CHO cells expressing hH3R (10 μg/well) are diluted in GTPγS assay buffer (20 mM Hepes, 10 mM MgCl2, 100 mM NaCl, pH 7.4) and preincubated with saponine (3 μg/ml), GDP (10 μM) and PVT-WGA SPA beads (125 μg/well) (Amersham) for 30 minutes. To determine antagonist activity, (R)-α-methyl histamine (30 nM) is added in 96 well SPA plate with [^35S]GTPγS (0.2 nM) and various concentration of H3R antagonists. The GTPγS binding assay is started with addition of the mixture membrane/saponine/GDP and incubated for 90 minutes at room temperature. The amount of bound [^35S]GTPγS is determined by using the MicroBeta Trilux counter (PerkinElmer). The percentage of [^35S]GTPγS bound in each sample is calculated as a percentage of that bound control sample incubated in absence of H3 antagonist. Duplicate determinations are obtained for each concentration, and the data are analyzed using ExcelFit4 to obtain the IC50.

Question: For `CS(=O)(=O)Nc1cccc([C@@H]2C[C@H]2C(=O)N2CCN(C3CCC3)CC2)c1` (relative stereo) [Example 30, trans-N-{3-[2-(4-Cyclobutylpiperazine-1-carbonyl)cyclopropyl]phenyl}methanesulfonamide], which IC50 is on record?
Answer: 8.59 nM

Question: `NC(=O)c1cccc([C@@H]2C[C@H]2C(=O)N2CCN(C3CCC3)CC2)c1` (single isomer, unassigned; enantiomer 1) [Example 36, 3-((trans)-2-(4-cyclobutylpiperazine-1-carbonyl)cyclopropyl)benzamide, enantiomer 1] was tested. Which IC50 did it give?
Answer: 6.19 nM

Question: How did the IC50 turn out when `O=C([C@@H]1C[C@H]1c1cccc(N2CCCC2=O)c1)N1CCN(C2CCC2)CC1` (single isomer, unassigned; enantiomer 1) [Example 38, 1-(3-((trans)-2-(4-cyclobutylpiperazine-1-carbonyl)cyclopropyl)phenyl)pyrrolidin-2-one, enantiomer 1] was run?
Answer: 11.6 nM

Question: How did the IC50 turn out when `O=C([C@@H]1C[C@H]1c1cccc(N2CCCCC2=O)c1)N1CCN(C2CCC2)CC1` (single isomer, unassigned; enantiomer 1) [Example 40, 1-(3-((trans)-2-(4-cyclobutylpiperazine-1-carbonyl)cyclopropyl)phenyl)piperidin-2-one, enantiomer 1] was run?
Answer: 18.2 nM

Question: Which IC50 does the source give for `NC(=O)c1ccc([C@@H]2C[C@H]2C(=O)N2CCN(C3CCC3)CC2)cc1` (single isomer, unassigned; enantiomer 1) [Example 43, 4-((trans)-2-(4-cyclobutylpiperazine-1-carbonyl)cyclopropyl)benzamide, enantiomer 1] here?
Answer: 3.81 nM

Question: How did the IC50 turn out when `NC(=O)c1cccc([C@@H]2C[C@H]2C(=O)N2CCN(C3CCC3)CC2)c1` (single isomer, unassigned; enantiomer 2) [Example 37, 3-((trans)-2-(4-cyclobutylpiperazine-1-Carbonyl)cyclopropyl)benzamide, enantiomer 2] was run?
Answer: > 1050 nM

Question: How did the IC50 turn out when `O=C([C@@H]1C[C@H]1c1cccc(N2CCCC2=O)c1)N1CCN(C2CCC2)CC1` (single isomer, unassigned; enantiomer 2) [Example 39, 1-(3-((trans)-2-(4-cyclobutylpiperazine-1-carbonyl)cyclopropyl)phenyl)pyrrolidin-2-one, enantiomer 2] was run?
Answer: > 1800 nM

Question: Which IC50 does the source give for `O=C([C@@H]1C[C@H]1c1cccc(N2CCCCC2=O)c1)N1CCN(C2CCC2)CC1` (single isomer, unassigned; enantiomer 2) [Example 41, 1-(3-((trans)-2-(4-cyclobutylpiperazine-1-carbonyl)cyclopropyl)phenyl)piperidin-2-one, enantiomer 2] here?
Answer: 733 nM
